#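 Where inhibition never reached the appropriate level, the endpoint shown equals the highest concentration tested. Otherwise, values were interpolated linearly from a five-concentration, 48-hour dose response in 96-well plates. TGI denotes the concentration required for complete inhibition of growth.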
# Assays:
# Assay in all cases: NCI anticancer screen, dose series, 48 h
# [1] = test system: NCI-H23 lung
# [2] = test system: SK-MEL-28 melanoma
# [3] = test system: MCF7 breast
# [4] = test system: HL-60(TB) leukemia
# [5] = test system: SF-268 CNS
# [6] = test system: UO-31 renal
# [7] = test system: UACC-62 melanoma
# [8] = test system: K-562 leukemia
# [9] = test system: PC-3 prostate
# [10] = test system: HOP-62 NSCLC
# [11] = test system: HT29 colon
# [12] = test system: HCC-2998 colon
# [13] = test system: A498 renal
# [14] = test system: UACC-257 melanoma
# [15] = test system: TK-10 renal
# [16] = test system: SNB-75 CNS
# [17] = test system: KM12 colon
# [18] = test system: SF-539 CNS
# [19] = test system: SK-MEL-2 melanoma
# [20] = test system: OVCAR-3 ovarian
# [21] = test system: IGROV1 ovarian
# [22] = test system: SK-MEL-5 melanoma
# [23] = test system: DU-145 prostate
# [24] = test system: SR leukemia
# [25] = test system: 786-0 renal
# [26] = test system: CAKI-1 renal
# [27] = test system: CCRF-CEM leukemia
# [28] = test system: SW-620 colon
# [29] = test system: COLO 205 colon
# [30] = test system: A549 NSCLC
# [31] = test system: ACHN renal
# [32] = test system: HOP-92 NSCLC
# [33] = test system: HS 578T breast
# [34] = test system: NCI-H460 lung
# [35] = test system: RXF 393 renal
# [36] = test system: SNB-19 CNS
# [37] = test system: LOX IMVI melanoma
# [38] = test system: SK-OV-3 ovarian
# [39] = test system: U251 CNS
# [40] = test system: M14 melanoma
# [41] = test system: NCI/ADR-RES ovarian
# [42] = test system: BT-549 breast
# [43] = test system: SF-295 CNS
# [44] = test system: MDA-MB-435
# [45] = test system: SN12C renal
# [46] = test system: HCT-15 colon
# [47] = test system: T-47D breast
# [48] = test system: OVCAR-5 ovarian
# [49] = test system: OVCAR-4 ovarian
# [50] = test system: MDA-N
# [51] = test system: RPMI-8226 leukemia
# [52] = test system: HCT-116 colon
# [53] = test system: MALME-3M melanoma
# [54] = test system: NCI-H522 lung
# [55] = test system: NCI-H226 lung
# [56] = test system: OVCAR-8 ovarian
# [57] = test system: MDA-MB-231 breast
# [58] = test system: MOLT-4 leukemia
# [59] = test system: EKVX NSCLC
smiles,measurement,setting,value
CCCCCCCCCC1(N=[N+]=[N-])C(=O)c2ccccc2N(C)C1=O (stereo not given),TGI,[1],97.4 µM
same,TGI,[2],78.8 µM
same,TGI,[3],> 100 µM
same,TGI,[4],> 100 µM
same,TGI,[5],> 100 µM
same,TGI,[6],> 100 µM
same,TGI,[7],80.5 µM
same,TGI,[8],> 100 µM
same,TGI,[9],> 100 µM
same,TGI,[10],> 100 µM
same,TGI,[11],> 100 µM
same,TGI,[12],96.2 µM
same,TGI,[13],76.8 µM
same,TGI,[14],> 100 µM
same,TGI,[15],> 100 µM
same,TGI,[16],> 100 µM
same,TGI,[17],> 100 µM
same,TGI,[18],> 100 µM
same,TGI,[19],69 µM
same,TGI,[20],56.4 µM
same,TGI,[21],60.7 µM
same,TGI,[22],26.6 µM
same,TGI,[23],> 100 µM
same,TGI,[24],> 100 µM
same,TGI,[25],> 100 µM
same,TGI,[26],> 100 µM
same,TGI,[27],> 100 µM
same,TGI,[28],> 100 µM
same,TGI,[29],> 100 µM
same,TGI,[30],95.1 µM
same,TGI,[31],> 100 µM
same,TGI,[32],53.3 µM
same,TGI,[33],83.8 µM
same,TGI,[34],> 100 µM
same,TGI,[35],55.3 µM
same,TGI,[36],> 100 µM
same,TGI,[37],34.3 µM
same,TGI,[38],> 100 µM
same,TGI,[39],6.31 µM
same,TGI,[40],64.6 µM
same,TGI,[41],> 100 µM
same,TGI,[42],74.6 µM
same,TGI,[43],> 100 µM
same,TGI,[44],6.88 µM
same,TGI,[45],57.8 µM
same,TGI,[46],> 100 µM
same,TGI,[47],9.17 µM
same,TGI,[48],82.9 µM
same,TGI,[49],> 100 µM
same,TGI,[50],79.1 µM
same,TGI,[51],> 100 µM
same,TGI,[52],75.2 µM
same,TGI,[53],70.2 µM
CC(=O)Nc1ccc(N2C(=O)/C(=C\c3cccc(Oc4ccccc4)c3)S(=O)(=O)C2c2ccccc2)cc1 (stereo not given),TGI,[1],> 100 µM
same,TGI,[54],> 100 µM
same,TGI,[2],> 100 µM
same,TGI,[3],> 100 µM
same,TGI,[55],> 100 µM
same,TGI,[4],56.6 µM
same,TGI,[6],> 100 µM
same,TGI,[7],> 100 µM
same,TGI,[8],> 100 µM
same,TGI,[9],> 100 µM
same,TGI,[10],> 100 µM
same,TGI,[11],> 100 µM
same,TGI,[12],> 100 µM
same,TGI,[13],> 100 µM
same,TGI,[14],> 100 µM
same,TGI,[15],> 100 µM
same,TGI,[16],> 100 µM
same,TGI,[56],> 100 µM
same,TGI,[17],> 100 µM
same,TGI,[18],62.5 µM
same,TGI,[19],> 100 µM
same,TGI,[20],> 100 µM
same,TGI,[21],> 100 µM
same,TGI,[22],> 100 µM
same,TGI,[23],> 100 µM
same,TGI,[24],> 100 µM
same,TGI,[25],> 100 µM
same,TGI,[26],> 100 µM
same,TGI,[27],> 100 µM
same,TGI,[28],> 100 µM
same,TGI,[29],> 100 µM
same,TGI,[30],> 100 µM
same,TGI,[31],> 100 µM
same,TGI,[57],> 100 µM
same,TGI,[32],> 100 µM
same,TGI,[34],> 100 µM
same,TGI,[35],> 100 µM
same,TGI,[36],> 100 µM
same,TGI,[37],> 100 µM
same,TGI,[38],> 100 µM
same,TGI,[39],> 100 µM
same,TGI,[40],> 100 µM
same,TGI,[41],> 100 µM
same,TGI,[42],> 100 µM
same,TGI,[58],98.4 µM
same,TGI,[43],> 100 µM
same,TGI,[59],> 100 µM
same,TGI,[44],> 100 µM
same,TGI,[45],> 100 µM
same,TGI,[46],> 100 µM
same,TGI,[47],> 100 µM
same,TGI,[48],> 100 µM
same,TGI,[49],> 100 µM
same,TGI,[50],95.3 µM
same,TGI,[51],66.8 µM
same,TGI,[52],> 100 µM
same,TGI,[53],> 100 µM

# Reference: PubChem BioAssay (NCI)
